From patent US20130109643A1, “METABOLIC INHIBITOR AGAINST TUMORS HAVING AN IDH MUTATION” (The Johns Hopkins University, priority 2010, published 2013)

Experiments:
[1] = test system: D54 glioblastoma cells overexpressing WT or R132H IDH1; test: alamarBlue cell growth assay, D54 glioblastoma lines overexpressing WT or R132H IDH1; format: cell-based, human
Method: (§1) Standard techniques were used to introduce the R132H mutation into human IDH1 engineered with a 6×-His-tag and produce lentivirus containing either WT or mutant IDH1. D54 cells or transformed normal human astrocytes (TNA) were transduced with virus, and lines were grown from individual cells using limiting dilution. IDH1 expression in response to […] doxycycline was confirmed using a 6×-His tag antibody (Millipore). Liquid chromatography/mass spectrometry was conducted as previously described. Dang L., et al., Cancer-associated IDH1 mutations produce 2-hydroxyglutarate. Nature 2009; 462:739-44. siRNA was used to knock down glutaminase, and cells were assessed for knockdown using Western blotting. Gao P., et al., c-Myc suppression of miR-23a/b enhances mitochondria/glutaminase expression and glutamine metabolism. Nature 2009; 458:762-5. Cell growth assays using alamarBlue were carried out as described following DMSO or bis-2-(5-phenylacetamido-1,2,4-thiadiazol-2-yl)ethyl sulfide (BPTES) treatment. Liolome W., et al., Glioblastoma cell growth is suppressed by disruption of Fibroblast Growth Factor pathway signaling. J Neurooncol 2009:94:359-66. […] [3H]-glutamate was isolated from the reaction mixture using anion exchange and measured using a scintillation counter. […] Data were evaluated using a two-tailed Student's t-test. P≦0.05 was considered significant.
D54 or TNA cells were transduced with virus containing WT or R132H IDH1. D54 cells were transduced using virus containing pLVCT-tTR-KRAB constructs, and TNA were transduced with virus containing Duet011 constructs. Lines were grown from individual cells using limiting dilution and tested for IDH1 expression. Expression was confirmed using Western blot and 6×-His-tag antibodies (Millipore). 0.04 μg/mL doxycycline was used to induce expression for D54 lines. Cells were maintained in DMEM, 10% FBS, 4.5 g/L glucose, and penicillin/streptomycin. Transformed normal human astrocytes (TNA) were a gift from Christopher M. Counter.
Cell growth assays using alamarBlue were carried out as described. Loilome W., et al., Glioblastoma cell growth is suppressed by disruption of Fibroblast Growth Factor pathway signaling. J Neurooncol 2009; 94(3):359-66. Cells were plated at a density of 500 cells/well in a 96-well black clear bottom plate (Becton Dickinson).

[2] = test system: D54 cells overexpressing WT or R132H IDH1; test: LC/MS metabolite levels in WT and mutant IDH1 D54 cells; format: cell-based, human; settings: 10 mmol/L BPTES, 48 hours
Method: as §1
3×10^5 (untreated) or 7.5×10^5 (BPTES-treated) cells were seeded in a T75 flask. 24 hrs post-plating, media on the cells was changed to 4.5 g/L glucose, 10% HyClone dialyzed FBS (ThermoScientific), penicillin/streptomycin, 4 mM glutamine and 0.04 μg/mL doxycycline to induce IDH1 expression. […] Metabolites were measured in one of two ways: using a reverse phase column with tributylamine as an ion pairing agent, Luo B., et al., Simultaneous determination of multiple intracellular metabolites in glycolysis, pentose phosphate pathway and tricarboxylic acid cycle by liquid chromatography-mass spectrometry. J Chromatogr 2007; 1147(2):153-64, coupled to a Thermo Exactive Mass Spectrometer operating at 100,000 resolving power using a mass range of ±5 ppm or single reaction monitoring on a Thermo TSQ Quantum Triple Quadrupole Mass Spectrometer coupled to an aminopropyl HPLC column. Bajad S. U., et al., Separation and quantitation of water soluble cellular metabolites by hydrophilic interaction chromatography-tandem mass spectrometry. J Chromatogr 2006; 1125(1):76-88. Signals were normalized to cell number prior to data analysis.

[3] = test system: transformed normal human astrocytes (TNA) overexpressing R132H or WT IDH1; test: alamarBlue cell growth assay, transformed normal human astrocytes (TNA) expressing WT or R132H IDH1; format: cell-based; settings: 48 hours
Method: as §1, with “significant. […]” for “significant.”

[4] = test system: primary acute myelogenous leukemia (AML) cells with mutant or wild-type IDH1; test: Growth curves of primary AML cells (trypan blue counting); format: cell-based, human; settings: BPTES at 20 or 40 μM vs DMSO vehicle
Method: Primary AML cells were cultured in RPMI-1640 media with 20% fetal bovine serum (FBS), 20% 5637 cell-conditioned media and 1% antibiotics as previously described (Miyauchi et al., 1987). Growth curves were generated by manual counting of viable cells as assessed by trypan blue exclusion on a hemocytometer. The detail of the procedure is as following: (1) The frozen cells are thawed and added into 10 mL of the media in a tissue culture flask and grown in a humidified incubator at 37° C. and 5% CO2 for 4-5 days. Cells were counted every 24-48 h to estimate the cells needed for the experiment. […] Then, 10-20 mL media containing each desired concentration of the drug were prepared. […] By doing this, the concentration of DMSO is constant and not more than 0.1%. BPTES is precipitated in PBS, so avoid dilution with PBS. […] When the cells were well homogenized, they were counted by 1:1 trypan blue exclusion with hemocytometer. […] The starting number for each cell line among control/DMSO/drug must be the same and is calculated based on the count from the cell-containing PBS solution. […] (6) Cells were counted every other day using a hemocytometer after staining with trypan blue (1:1). […] Cells were counted in the 4 outer squares of the hemocytometer, and the number was divided by 2 (=n). […] When cell concentration was low, more grids were counted and the cell concentrations were calculated accordingly.

[5] = test system: mutant IDH1 cells; test: Caspase 3/7 activation assay (Caspase-Glo 3/7); format: cell-based, human; settings: 10 μM BPTES, 24 hrs, vs DMSO
Method: Cells were plated at a density of 5000 cells/well in a 96-well black clear bottom plate (Becton Dickinson). 24 hrs after plating, media was changed to fresh media with or without 0.04 μg/mL doxycycline.

[6] = test system: mutant IDH1 cells; test: Annexin V staining (flow cytometry); format: cell-based, human; settings: 10 μM BPTES, 24 hrs, vs DMSO
Method: Cells were plated at a density of 2×10^5 cells/well in a 6-well plate. Media was changed to media with or without doxycyline 24 hrs after plating.

Structure (SMILES): NOCC(=O)O [AOA, amino-oxyacetic acid]
- sensitivity of growth, mutant vs WT IDH1 cells ([1]; AOA, 1.5 g/L glucose, 48 hrs): more sensitive

Structure (SMILES): O=C(Cc1ccccc1)Nc1nnc(CCSCCc2nnc(NC(=O)Cc3ccccc3)s2)s1 [BPTES]
- levels of glycolytic intermediates (fructose-1,6-bisphosphate, dihydroxy-acetone-phosphate, 3-phosphoglycerate) [2]: increased
- tricarboxylic acid cycle intermediates (succinate and malate) and aspartate levels [2]: decreases
- citrate levels ([2]; WT IDH1 cells): decreased
- glutamate levels ([2]; WT and mutant IDH1 cells): diminished
- α-KG levels ([2]; WT and mutant IDH1 cells): diminished
- citrate levels ([2]; mutant IDH1 cells): increased
- 2-HG levels ([2]; treated mutant IDH1 cells): remained unchanged
- sensitivity of growth, mutant vs WT IDH1 cells [3]: mutant IDH1 cells also were more sensitive
- effect on growth, mutant vs WT IDH1 cells ([1]; D54+R132H compared with D54 and D54+WT IDH1, 48 hours): preferentially slowed growth of mutant IDH1 cells
- growth reduction ([1]; mutant IDH1 D54 cells, 48 hours): about 20%
- cell killing, mIDH1 vs wild-type AML cells [4]: selectively kills
- Caspase 3/7 induction [5]: does not increase
- Annexin V staining [6]: does not increase

Structure (SMILES): O=C(O[C@@H]1Cc2c(O)cc(O)cc2O[C@@H]1c1cc(O)c(O)c(O)c1)c1cc(O)c(O)c(O)c1 [EGCG, epigallocatechin gallate]
- sensitivity of growth, mutant vs WT IDH1 cells ([1]; EGCG, 0.1 g/L glucose, 72 hrs): more sensitive

Structure (SMILES): COC(=O)CCC(=O)C(=O)OC [dimethyl-α-ketoglutarate]
- rescue of BPTES growth inhibition at higher BPTES concentrations ([1]; 1 mmol/L dimethyl-α-ketoglutarate, 50 or 100 mmol/L BPTES): not blocked
- rescue of BPTES growth inhibition ([1]; mutant IDH1 cells, 1 mmol/L dimethyl-α-ketoglutarate added to BPTES): significantly reduced growth inhibition
